Results on 31 compounds are retold here after patent US7189720B2 (H. Lundbeck A/S, priority 1999, dated 2007).

In general, Ki refers to a dissociation constant, usually derived from enzyme kinetics or from competition with a known ligand.

The target of the assay is T1, human Y5 receptor (Homo sapiens, UniProt Q15761).
T1 construct: expressed in transfected cells; host or cells: mouse fibroblast LM(tk-) cells, e.g. L-hY5-7 (ATCC CRL-11995)
T1 sequence (Q15761 1-445): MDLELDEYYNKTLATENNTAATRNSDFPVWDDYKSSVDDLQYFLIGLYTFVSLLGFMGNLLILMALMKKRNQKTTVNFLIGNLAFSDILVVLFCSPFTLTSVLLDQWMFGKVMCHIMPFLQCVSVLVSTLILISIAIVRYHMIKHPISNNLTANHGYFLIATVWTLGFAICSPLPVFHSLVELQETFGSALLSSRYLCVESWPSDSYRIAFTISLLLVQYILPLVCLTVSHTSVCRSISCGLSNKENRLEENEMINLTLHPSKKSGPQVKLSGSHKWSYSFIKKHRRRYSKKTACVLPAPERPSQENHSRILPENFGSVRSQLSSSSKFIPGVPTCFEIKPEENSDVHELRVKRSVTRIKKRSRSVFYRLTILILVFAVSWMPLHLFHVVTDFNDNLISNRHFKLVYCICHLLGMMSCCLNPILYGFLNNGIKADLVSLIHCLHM
Put plainly: Radioligand binding to membranes, cloned human Y5 receptor. To be noted: Table 6; read-out: Ki, nM hNPY-5.
Experimental: Binding of the compounds of the present invention to human Y1, Y2, Y4, and Y5 receptors was evaluated using stably transfected 293 or LM(tk-) cells as described above.
Membranes were harvested from COS-7 cells 48 hours after transient transfection. Adherent cells were washed twice in ice-cold phosphate buffered saline (138 mM NaCl, 8.1 mM Na2HPO4, 2.5 mM KCl, 1.2 mM KH2PO4, 0.9 mM CaCl2, 0.5 mM MgCl2, pH 7.4) and lysed by sonication in ice-cold sonication buffer (20 mM Tris-HCl, 5 mM EDTA, pH 7.7). Large particles and debris were cleared by low speed centrifugation (200×g, 5 min, 4° C.). Membranes were collected from the supernatant fraction by centrifugation (32,000×g, 18 min, 4° C.), washed with ice-cold hypotonic buffer, and collected again by centrifugation (32,000×g, 18 min, 4° C.). The final membrane pellet was resuspended by sonication into a small volume of ice-cold binding buffer (˜1 ml for every 5 plates: 10 mM NaCl, 20 mM HEPES, 0.22 mM KH2PO4, 1.26 mM CaCl2, 0.81 mM MgSO4, pH 7.4). Protein concentration was measured by the Bradford method (Bradford, 1976) using Bio-Rad Reagent, with bovine serum albumin as a standard. Membranes were held on ice for up to one hour and used fresh, or flash-frozen and stored in liquid nitrogen.
Membranes were prepared similarly from 293, LM(tk-), and NIH-3T3 cells.
Membrane suspensions were diluted in binding buffer supplemented with 0.1% bovine serum albumin to yield an optimal membrane protein concentration so that ^125I-PYY (or alternative radioligand such as ^125I-NPY, ^125I-NYY3-36, or ^125I-[Leu^31Pro^34]PYY) bound by membranes in the assay was less than 10% of ^125I-PYY (or alternative radioligand) delivered to the sample (100,000 dpm/sample=0.08 nM for competition binding assays). ^125I-PYY (or alternative radioligand) and peptide competitors were also diluted to desired concentrations in supplemented binding buffer. Individual samples were then prepared in 96-well polypropylene microtiter plates by mixing ^125I-PYY (25 μL) (or alternative radioligand), competing peptides or supplemented binding buffer (25 μL), and finally, membrane suspensions (200 μL). Samples were incubated in a 30° C. water bath with constant shaking for 120 min. Incubations were terminated by filtration over Whatman GF/C filters (pre-coated with 1% polyethyleneimine and air-dried before use), followed by washing with 5 mL of ice-cold binding buffer. Filter-trapped membranes were impregnated with MeltiLex solid scintillant (Wallac, Turku, Finland) and counted for ^125I in a Wallac Beta-Plate Reader. Alternatively, incubations were carried out in GF/C filter plates (pre-coated with 1% polyethyleneimine and air-dried before use), followed by vacuum filtration and three washes of 300 μL of ice-cold binding buffer. 50 μL of UltimaGold (Packard) scintillant were added and counted for ^125I, in a Wallac MicroBeta Trilux. Non-specific binding was defined by 300 nM human NPY for all receptors except the Y4 subtypes; 100 nM human PP was used for the human Y4 and 100 nM rat PP for the rat Y4.
As to `CN(C)c1cccc2c(S(=O)(=O)NCCCCCNc3nc4c(s3)CCSc3ccccc3-4)cccc12` [Example 123, N1-[5-(4,5-Dihydrobenzo[2,3]thiepino[4,5-d][1,3]thiazol-2-ylamino)pentyl]-5-(dimethylamino)-1 naphthalenesulfonamide], the Ki was 161 nM. The value for `O=[N+]([O-])c1ccccc1S(=O)(=O)NC[C@H]1CC[C@H](Nc2nc3c(s2)CCSc2ccccc2-3)CC1` [Example 124, N1-{[4-(4,5-Dihydrobenzo[2,3]thiepino[4,5-d][1,3]thiazol-2-ylamino)cyclohexyl]methyl}-2-nitro-1-benzenesulfonamide] was 11.5 nM; that for `Cn1cnc(S(=O)(=O)NC[C@H]2CC[C@H](Nc3nc4c(s3)CCSc3ccccc3-4)CC2)c1` [Example 125, N4-{[4-(4,5-Dihydrobenzo[2,3]thiepino[4,5-d][1,3]thiazol-2-ylamino)cyclohexyl]methyl}-1-methyl-1h-4-imidazolesulfonamide] was 33 nM; that for `O=S(=O)(NC[C@H]1CC[C@H](Nc2nc3c(s2)CCSc2ccccc2-3)CC1)c1ccc(-c2ccon2)s1` [Example 126, N2-{[4-(4,5-Dihydrobenzo[2,3]thiepino[4,5-d][1,3]thiazol-2-ylamino)cyclohexyl]methyl}-5-(3-isoxazolyl)-2-thiophenesulfonamide] was 34 nM. The value for `O=S(=O)(NCCCCCNc1nc2c(s1)CCSc1ccccc1-2)c1cccc2ccccc12` [Example 127, N1-[5-(4,5-Dihydrobenzo[2,3]thiepino[4,5-d][1,3]thiazol-2-ylamino)pentyl]-1-naphthalenesulfonamide] was 17.2 nM. The value for `O=S(=O)(NCCCCCNc1nc2c(s1)CCSc1ccccc1-2)c1ccccc1F` [Example 128, N1-[5-(4,5-Dihydrobenzo[2,3]thiepino[4,5-d][1,3]thiazol-2-ylamino)pentyl]-2-fluoro-1-benzenesulfonamide] was 3.7 nM.

Regarding `O=S(=O)(NCCCCCCNc1nc2c(s1)CCSc1ccccc1-2)c1ccc(-c2ccon2)s1` [Example 129, N2-[6-(4,5-Dihydrobenzo[2,3]thiepino[4,5-d][1,3]thiazol-2-ylamino)hexyl]-5-(3-isoxazolyl)-2-thiophenesulfonamide], the Ki stood at 29 nM. Turning to `O=[N+]([O-])c1ccccc1S(=O)(=O)NCCCCCNc1nc2c(s1)CCSc1ccccc1-2` [Example 130, N1-[5-(4,5-Dihydrobenzo[2,3]thiepino[4,5-d][1,3]thiazol-2-ylamino)pentyl]-2-nitro-1-benzenesulfonamide], the Ki stood at 5.2 nM. For the compound `O=S(=O)(NCCCCCNc1nc2c(s1)CCSc1ccccc1-2)c1c(Cl)cccc1Cl` [Example 131, N1-[5-(4,5-Dihydrobenzo[2,3]thiepino[4,5-d][1,3]thiazol-2-ylamino)pentyl]-2,6-dichloro-1-benzenesulfonamide], the Ki is 71 nM. The value for `COc1cccc(Br)c1S(=O)(=O)NCCCCCNc1nc2c(s1)CCSc1ccccc1-2` [Example 132, N1-[5-(4,5-Dihydrobenzo[2,3]thiepino[4,5-d][1,3]thiazol-2-ylamino)pentyl]-2-bromo-6-methoxy-1-benzenesulfonamide] was 9.7 nM; that for `O=S(=O)(Cc1ccccc1)NCCCCCNc1nc2c(s1)CCSc1ccccc1-2` [Example 133, N-[5-(4,5-dihydrobenzo[2,3]thiepino[4,5-d][1,3]thiazol-2-ylamino)pentyl]phenyl-methanesulfonamide] was 38 nM; that for `Cc1cccc(F)c1S(=O)(=O)NCCCCCNc1nc2c(s1)CCSc1ccccc1-2` [Example 134, N1-[5-(4,5-Dihydrobenzo[2,3]thiepino[4,5-d][1,3]thiazol-2-ylamino)pentyl]-2-fluoro-6-methyl-1-benzenesulfonamide] was 8.3 nM. The value for `Cc1cccc(F)c1S(=O)(=O)NCCCCNc1nc2c(s1)CCSc1ccccc1-2` [Example 135, N1-[4-(4,5-dihydrobenzo[2,3]thiepino[4,5-d][1,3]thiazol-2-ylamino)butyl]-2-fluoro-6-methyl-1-benzenesulfonamide] was 110 nM; that for `O=S(=O)(NCCCCCNc1nc2c(s1)CCSc1ccccc1-2)c1ccc(F)cc1F` [Example 137, N1-[5-(4,5-Dihydrobenzo[2,3]thiepino[4,5-d][1,3]thiazol-2-ylamino)pentyl]-2,4-difluoro-1-benzenesulfonamide] was 6.5 nM. In the case of `O=S(=O)(NCCCCNc1nc2c(s1)CCSc1ccccc1-2)c1ccc(F)cc1F` [Example 138, N1-[4-(4,5-Dihydrobenzo[2,3]thiepino[4,5-d][1,3]thiazol-2-ylamino)butyl]-2,4-difluoro-1-benzenesulfonamide] it was 119 nM; in that of `CN(C)C(=O)NCCCCCNc1nc2c(s1)CCSc1ccccc1-2` [Example 139, N′-[5-(4,5-Dihydrobenzo[2,3]thiepino[4,5-d][1,3]thiazol-2-ylamino)pentyl]-N,N-dimethylurea], 122 nM. On to `O=C(NCCCCNc1nc2c(s1)CCSc1ccccc1-2)c1cccc2ccccc12` [Example 140, N1-[4-(4,5-Dihydrobenzo[2,3]thiepino[4,5-d][1,3]thiazol-2-ylamino)butyl]-1-naphthamide], for which the Ki was determined as 123 nM.

On to `O=C(NCCCCCNc1nc2c(s1)CCSc1ccccc1-2)c1cccs1` [Example 141, N2-[5-(4,5-Dihydrobenzo[2,3]thiepino[4,5-d][1,3]thiazol-2-ylamino)pentyl]-2-thiophenecarboxamide], for which the Ki was determined as 84 nM. For `O=C(NCCCCCNc1nc2c(s1)CCSc1ccccc1-2)c1ccc2ccccc2c1` [Example 142, N2-[5-(4,5-Dihydrobenzo[2,3]thiepino[4,5-d][1,3]thiazol-2-ylamino)pentyl]-2-naphthamide], the Ki is 100 nM. In the case of `CCCS(=O)(=O)NCCCCCCNc1nc2c(s1)CCSc1ccccc1-2` [Example 143, N1-[6-(4,5-Dihydrobenzo[2,3]thiepino[4,5-d][1,3]thiazol-2-ylamino)hexyl]-1-propanesulfonamide] it was 3.6 nM; in that of `O=S(=O)(NCCCCCCNc1nc2c(s1)CCSc1ccccc1-2)c1cccc(C(F)(F)F)c1` [Example 144, N1-[6-(4,5-dihydrobenzo[2,3]thiepino[4,5-d][1,3]thiazol-2-ylamino)hexyl]-3-(trifluoromethyl)-1-benzenesulfonamide], 22.4 nM; in that of `O=S(=O)(NCCCCCCNc1nc2c(s1)CCSc1ccccc1-2)c1ccc(F)cc1F` [Example 145, N1-[6-(4,5-Dihydrobenzo[2,3]thiepino[4,5-d][1,3]thiazol-2-ylamino)hexyl]-2,4-difluoro-1-benzenesulfonamide], 4.1 nM. In the case of `O=S(=O)(NCCCCCCNc1nc2c(s1)CCSc1ccccc1-2)c1c(Cl)cccc1Cl` [Example 146, N1-[6-(4,5-Dihydrobenzo[2,3]thiepino[4,5-d][1,3]thiazol-2-ylamino)hexyl]-2,6-dichloro-1-benzenesulfonamide] it was 25 nM. In the case of `COc1cccc(Br)c1S(=O)(=O)NCCCCCCNc1nc2c(s1)CCSc1ccccc1-2` [Example 147, N1-[6-(4,5-Dihydrobenzo[2,3]thiepino[4,5-d][1,3]thiazol-2-ylamino)hexyl]-2-bromo-6-methoxy-1-benzenesulfonamide] it was 7.9 nM; in that of `O=S(=O)(Cc1ccccc1)NCCCCCCNc1nc2c(s1)CCSc1ccccc1-2` [Example 148, N-[6-(4,5-Dihydrobenzo[2,3]thiepino[4,5-d][1,3]thiazol-2-ylamino)hexyl]phenylmethane-sulfonamide], 10.5 nM; in that of `Cc1cccc(F)c1S(=O)(=O)NCCCCCCNc1nc2c(s1)CCSc1ccccc1-2` [Example 149, N1-[6-(4,5-Dihydrobenzo[2,3]thiepino[4,5-d][1,3]thiazol-2-ylamino)hexyl]-2-fluoro-6-methyl-1-benzenesulfonamide], 4 nM.

With `O=S(=O)(NC[C@H]1CC[C@H](Nc2nc3c(s2)CCSc2ccccc2-3)CC1)c1cccc(C(F)(F)F)c1` [Example 150, N1-{[4-(4,5-Dihydrobenzo[2,3]thiepino[4,5-d][1,3]thiazol-2-ylamino)cyclohexyl]methyl}-3-(trifluoromethyl)-1-benzenesulfonamide], the Ki was determined as 21 nM. The value for `O=S(=O)(NC[C@H]1CC[C@H](Nc2nc3c(s2)CCSc2ccccc2-3)CC1)c1ccc(F)cc1F` [Example 151, N1-{[4-(4,5-Dihydrobenzo[2,3]thiepino[4,5-d][1,3]thiazol-2-ylamino)cyclohexyl]methyl}-2,4-difluoro-1-benzenesulfonamide] was 7.9 nM; that for `O=S(=O)(NC[C@H]1CC[C@H](Nc2nc3c(s2)CCSc2ccccc2-3)CC1)c1c(Cl)cccc1Cl` [Example 152, N1-{[4-(4,5-Dihydrobenzo[2,3]thiepino[4,5-d][1,3]thiazol-2-ylamino)cyclohexyl]methyl}-2,6-dichloro-1-benzenesulfonamide] was 17.4 nM.

Turning to `O=S(=O)(Cc1ccccc1)NC[C@H]1CC[C@H](Nc2nc3c(s2)CCSc2ccccc2-3)CC1` [Example 153, N-{[4-(4,5-Dihydrobenzo[2,3]thiepino[4,5-d][1,3]thiazol-2-ylamino)cyclohexyl]methyl}phenyl-methanesulfonamide], the Ki was 8.9 nM.

In the case of `N#Cc1ccccc1S(=O)(=O)NC[C@H]1CC[C@H](Nc2nc3c(s2)CCSc2ccccc2-3)CC1` [Example 154, N1-{[4-(4,5-Dihydrobenzo[2,3]thiepino[4,5-d][1,3]thiazol-2-ylamino)cyclohexyl]methyl}-2-cyano-1-benzenesulfonamide], the Ki was 69 nM.
